According to patent US20050245399A1, “Pyrazole derivatives as herbicidal compositions containing them” (ISHIHARA SANGYO KAISHA, LTD., priority 2004, published 2005):

Columns and labels:
Format in all cases: in vivo
[1] = tested on: crabgrass (Digitaria sanguinalis L.): DIGSA; test: Test Example 1 pre-emergence herbicidal activity, DIGSA; settings: Rate 63 g a.i./ha, visually observed 20th to 23rd day after application
Method in brief: (§1)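 Scoring was visual growth control (0 = untreated, 100 = complete kill) on days 20–23 post-application. Treatment came as a pre-emergence spray one day after sowing in upland soil, using wettable powder or emulsifiable concentrate diluted in 500 L/ha water at predetermined active-ingredient amounts.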

[2] = tested on: green foxtail (Setaria viridis L.): SETVI; test: Test Example 1 pre-emergence herbicidal activity, SETVI; settings: Rate 63 g a.i./ha, visually observed 20th to 23rd day after application
Method in brief: as §1

[3] = tested on: redroot pigweed (Amaranthus retroflexus L.): AMARE; test: Test Example 1 pre-emergence herbicidal activity, AMARE; settings: Rate 63 g a.i./ha, visually observed 20th to 23rd day after application
Method in brief: as §1

[4] = tested on: corn (Zea mays L.): ZEAMX; test: Test Example 1 pre-emergence herbicidal activity, ZEAMX; settings: Rate 63 g a.i./ha, visually observed 20th to 23rd day after application
Method in brief: as §1

[5] = tested on: redroot pigweed (Amaranthus retroflexus L.), AMARE; test: Test Example 2 post-emergence (foliage treatment) herbicidal activity, AMARE
Method in brief: (§2)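 Visual rating of growth control, from 0 (untreated-like) to 100 (complete kill), was done 20–23 days after post-emergence spraying. Wettable powder or emulsifiable concentrate was diluted to 500 L/ha with 0.1% (v/v) spreader. Leaf stages at application were 1.1-2.1 (ECHCG), 1.0-2.0 (DIGSA), 0.1-1.5 (AMARE) and 1.0-2 (ORYSA).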

[6] = tested on: prickly sida (Sida spinosa L.), SIDSP; test: Test Example 2 post-emergence (foliage treatment) herbicidal activity, SIDSP
Method in brief: (§3)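 Foliar spray of formulated compound (500 L/ha dilution water, 0.1% v/v spreader) onto young potted plants at defined leaf stages. Scored 0-100% by visual inspection 20-23 d post-spray.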

[7] = tested on: velvetleaf (Abutilon theophrasti), ABUTH; test: Test Example 2 post-emergence (foliage treatment) herbicidal activity, ABUTH
Method in brief: as §3

[8] = tested on: rice (Oryza sativa L.), ORYSA; test: Test Example 2 post-emergence (foliage treatment) herbicidal activity, ORYSA
Method in brief: as §2

[9] = tested on: wheat (Triticum aestivum L.), TRZAX; test: Test Example 2 post-emergence (foliage treatment) herbicidal activity, TRZAX
Method in brief: as §3

[10] = tested on: corn (Zea mays L.), ZEAMX; test: Test Example 2 post-emergence (foliage treatment) herbicidal activity, ZEAMX
Method in brief: as §3

[11] = tested on: soybean (Glycine max Merr.), GLXMA; test: Test Example 2 post-emergence (foliage treatment) herbicidal activity, GLXMA
Method in brief: as §3

[12] = tested on: barnyardgrass (Echinochiloa oryzicola: ECHOR); test: Test Example 3 water application herbicidal activity (paddy), ECHOR; settings: 63 g a.i./ha, water application under submerged condition at 0.5 leaf stage, visually observed 14th day after application; 0 = untreated control, 100 = complete kill
Method in brief: (§4)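 Flooded paddy-soil pots in greenhouse; ECHOR and SCPJO sown, SAGPY tubers planted a day later, compound applied into 3–4 cm water at weeds' 0.5-leaf stage. Rice transplanted at 2-leaf stage, treated day 4 after transplanting. Visual growth control 0–100% at 14 days (weeds) and 21 days (rice) after application.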

[13] = tested on: japanese ribbon wapato (Sagittaria pygmaea: SA GPY); test: Test Example 3 water application herbicidal activity (paddy), SAGPY; settings: 63 g a.i./ha, water application under submerged condition, tubers planted, visually observed 14th day after application; 0 = untreated control, 100 = complete kill
Method in brief: as §4

Compound	Pre-emergence Herbicidal Activity DIGSP (growth controlling degree) [1]	Pre-emergence Herbicidal Activity SETVI (growth controlling degree) [2]	Pre-emergence Herbicidal Activity AMARE (growth controlling degree) [3]	Pre-emergence Herbicidal Activity ZEAMX (growth controlling degree) [4]	growth controlling degree, AMARE ([5]; 63 g a.i./ha)	growth controlling degree, SIDSP ([6]; 63 g a.i./ha)	growth controlling degree, ABUTH ([7]; 63 g a.i./ha)	growth controlling degree, ORYSA ([8]; 63 g a.i./ha)	growth controlling degree, TRZAX ([9]; 63 g a.i./ha)	growth controlling degree, ZEAMX ([10]; 63 g a.i./ha)	growth controlling degree, GLXMA ([11]; 63 g a.i./ha)	growth controlling degrees (%) ECHOR [12]	growth controlling degrees (%) SAGPY [13]	growth controlling degree, AMARE ([5]; 125 g a.i./ha)	growth controlling degree, SIDSP ([6]; 125 g a.i./ha)	growth controlling degree, ABUTH ([7]; 125 g a.i./ha)	growth controlling degree, ORYSA ([8]; 125 g a.i./ha)	growth controlling degree, TRZAX ([9]; 125 g a.i./ha)	growth controlling degree, ZEAMX ([10]; 125 g a.i./ha)	growth controlling degree, GLXMA ([11]; 125 g a.i./ha)
CNc1c(OC)c(Cl)cc(F)c1-c1nn(C)c(OC(F)F)c1Cl [Compound 1-58]	100%	100%	100%	0%	100%	100%	100%	70%	60%	100%	95%	100%	100%							
COc1c(Cl)cc(F)c(-c2nn(C)c(OC(F)F)c2Cl)c1N(C=O)CC(=O)c1ccccc1 [Compound 1-12]	30%	95%	100%	10%	100%	100%	100%	40%	20%	10%	40%	95%	30%							
COc1c(Cl)cc(F)c(-c2nn(C)c(OC(F)F)c2Cl)c1N(C=O)CC(=O)c1ccc(Cl)cc1 [Compound 1-13]	70%	90%	100%	40%	100%	100%	100%	70%	30%	40%	50%	95%	0%							
COc1c(Cl)cc(F)c(-c2nn(C)c(OC(F)F)c2Cl)c1N(C=O)CC(C)=O [Compound 1-14]	98%	100%	100%	40%	100%	100%	100%	40%	40%	40%	60%	100%	98%							
COc1c(Cl)cc(F)c(-c2nn(C)c(OC(F)F)c2Cl)c1NC(=O)C=C(C)C [Compound 1-9]	98%	100%	100%	70%	100%	100%	100%	80%	40%	70%	90%	100%	100%							
COc1c(Cl)cc(F)c(-c2nn(C)c(OC(F)F)c2Cl)c1NC(C)C [Compound 1-59]	100%	100%	100%	10%	100%	100%	100%	40%	50%	80%	95%	100%	60%							
COc1c(Cl)cc(F)c(-c2nn(C)c(OC(F)F)c2Cl)c1N(C)C=O [Compound 1-6]	100%	50%	100%	30%	100%	100%	100%	40%	30%	30%	90%	90%	30%							
COc1c(Cl)cc(F)c(-c2nn(C)c(OC(F)F)c2Cl)c1N(C(=O)C=C(C)C)C(=O)C=C(C)C [Compound 1-11]	40%	100%	100%	30%	100%	100%	100%	40%	20%	30%	50%	100%	40%							
COc1c(Cl)cc(F)c(-c2nn(C)c(OC(F)F)c2Cl)c1N(C=O)C1CCCC1 [Compound 1-10]	60%	100%	100%	40%	100%	100%	100%	70%	40%	40%	50%	100%	40%							
COc1c(Cl)cc(F)c(-c2nn(C)c(OC(F)F)c2Cl)c1NC1CCCC1 [Compound 1-60]	10%	30%	95%	0%	100%	100%	100%	40%	40%	50%	70%	100%	60%							
Cn1nc(-c2c(F)cc(Cl)c(OC(F)F)c2N)c(Cl)c1OC(F)F [Compound 1-81, 3-chloro-6-[4-chloro-5-(difluoromethoxy)-1-methyl-1H-pyrazol-3-yl]-2-(difluoromethoxy)-5-fluorobenzenamine]	100%	100%	100%	10%								100%	95%	100%	100%	100%	70%	100%	90%	80%
